Measured values published in patent publication US20020082273A1, “Agents for use in the treatment of alzheimer's disease” (priority 1998, published 2002).
Where “and” joins values, the source holds several entries; their conditions need not be identical. Equal entries are not always repeated. Entries after “also recorded” stand apart in the source; their conditions may differ.

Tests used:
[1] = TBARS assay of OH.; type: biochemical; conditions: scavenger 5 mM; Fe^3+ or Cu^2+
Protocol: All data points are means ±SD, n=3.
The Thiobarbituric Acid-Reactive Substance (TBARS) assay for incubation mixtures with Fe^3+ or Cu^2+ was performed in a 96-well microtiter format modified from established protocols (Gutteridge et al. Biochim. Biophys. Acta 759: 38-41 (1983)). Aβ peptide species (10 μM) or Vitamin C (100 μM), were incubated with Fe^3+ or Cu^2+ (1 μM) and deoxyribose (7.5 mM, Sigma) in PBS, pH 7.4. Following incubation (37° C., 1 hour), glacial (17 M) acetic acid and 2-thiobarburic acid (1%, w/v in 0.05 M NaOH, Sigma) were added and heated (100° C., 10 min). The final mixtures were placed on ice for 1-3 minutes before absorbances at 532 nm were measured. The net absorbance change for each sample were obtained by deducting the absorbance from a control sample consisting of identical chemical components except for the Vitamin C or Aβ peptides.

[2] = test system: Aβ; test: Effect of agents on Cu^2+-induced SDS-resistant Aβ polymerization; type: biochemical, human
Protocol: Cu^2+-induced SDS-resistant oligomerization of Aβ: Aβ (2.5 μM), 150 mM NaCl, 20 mM hepes (pH 6.6, 7.4, 9) with or without ZnCl2 or CuCl2. Following incubation (37° C.), aliquots of each reaction (2 ng peptide) were collected at 0 d, 1 d, 3 d and 5 d and western blotted using anti-Aβ monoclonal antibody 8E10 (FIG. 9). Migration of the molecular size markers are indicated (kDa). […] Cu^2+ (2-30 μM) induced SDS-resistant polymerization of peptide. […] It should be noted that other means of visualizing and/or determining the presence or absence of polymerization other than western blot analysis may be used. Such other means include but are not limited to density sedimentation by centrifugation of the samples.
It is possible that the decreased polymerization may be due to chelation of Cu^2+ by BC, however given the low binding affinity of BC for Cu^2+ compared with Aβ, it seems likely that the chelation of Cu^+ by BC prevents it from inducing SDS-resistant Ad polymerization. Therefore, Aβ may undergo a hydroxyl radical modification that promotes its assembly into SDS-resistant polymers.

[3] = Table 5; NIST database; cited from earlier work
[4] = Table 5; NIST database; cited from earlier work; remark: listed apart in the source
[5] = Residual metals in post-centrifugation pellets of brain homogenates (ICP-AES); type: biochemical, human; conditions: Table 6
[6] = test system: Aβ deposits of AD-affected brain; test: Extraction (solubilization) of Aβ from post-mortem AD brain tissue homogenates, western blot densitometry; type: biochemical, human
Protocol: Identical regions of frontal cortex (0.5 g) from post-mortem brains of individuals with AD, as well as non-AD conditions, were homogenized in TBS, […] ±metal chelators.
0.5 g of prefrontal cortex was dissected and homogenized in PBS ±chelator as indicated. The homogenate was then centrifuged (100,000 g) and the supernatant removed, and a sample taken for western blot assay using anti-Aβ specific antibodies after Tricine PAGE. Densitometry was performed against synthetic peptide standards.
Densitometry of Aβ western blots (FIGS. 19A-19C) was performed for a series of 6 AD brain samples homogenized in the presence of chelators as indicated.
Next the ability of clioquinol to extract Aβ deposits from human brain was examined. […] Fragments of prefrontal cortex from individual post-mortem samples with the histopathological diagnosis of AD were homogenized in PBS, pH 7.4, and then pelleted after centrifugation. The pellets were then washed with agitation twice for 30 minutes, 4° C., with PBS or PBS containing clioquinol (100% =0.8 μM clioquinol). The suspension was then pelleted (10,000 g for 30 minutes) and the supernatant removed (S1) for western blot analysis using Aβ-specific antibodies (illustrated). The pellet was treated a second time in this experiment with agitation and centrifugation, and the second supernatant (S2) analysed.
Soluble Aβ (ng/g tissue) was determined as described. Total Aβ was determined following formic acid extraction of otherwise untreated tissue.
(§1) Suitable quantities of gray matter from each subject were minced to serve as pools of homogenous tissue. […] To obtain the soluble fraction, the homogenates were centrifuged at 100,000× g for 30 min (Beckman J180, Beckman instruments, Fullerton, California) and the supernatant collected in 1 ml aliquots and stored on ice or immediately frozen at −70° C. In each experiment, all protein was precipitated from 1 ml of supernatant from each treatment group using 1:5 ice cold 10% trichloracetic acid and pelleted in a bench top microfuge (Heraeus, Osteroder, Germany) at 10,000× g. The remaining pellet was frozen at −70° C.
Precipitated protein was subjected to SDS polyacrylamide gel electrophoresis (SDS-PAGE) on Novex pre-cast 10-20% Tris-Tricine gels followed by Western transfer onto 0.2 μm nitrocellulose membrane (Biorad, Hercules, Calif.). […] Each gel included two or more lanes containing known quantities of synthetic Aβ which served as internal reference standards. Blot images were captured by a Relisys scanner with transparency adapter (Teco Information Systems, Taiwan, ROC) and densitometry conducted using the NIH Image 1.6 program (National Institutes for Health, USA. Modified for PC by Scion Corporation, Frederick, Md.), calibrated using a step diffusion chart. For quantitation of Aβ in brain extracts, the internal reference standards of synthetic Aβ were utilized to produce standard curves from which values were interpolated.

[7] = test system: Aβ deposits of age-matched control brain; test: Extraction of Aβ from age-matched non-AD control brain tissue; type: biochemical, human
Protocol: as §1
Precipitated protein was subjected to SDS polyacrylamide gel electrophoresis (SDS-PAGE) on Novex pre-cast 10-20% Tris-Tricine gels followed by Western transfer onto 0.2 μm nitrocellulose membrane (Biorad, Hercules, Calif.). Aβ was detected using the WO2, G210 or G211 monoclonal antibodies (Ida, N., et al., J. Biol. Chem., 271:22908 (1996)) in combination with HRP-conjugated rabbit anti-mouse IgG (Dako, Denmark), and visualized using chemiluminescence (ECL, Amersham Life Science, Little Chalfont, Buckinghamshire, UK). Each gel included two or more lanes containing known quantities of synthetic Aβ which served as internal reference standards. Blot images were captured by a Relisys scanner with transparency adapter (Teco Information Systems, Taiwan, ROC) and densitometry conducted using the NIH Image 1.6 program (National Institutes for Health, USA. Modified for PC by Scion Corporation, Frederick, Md.), calibrated using a step diffusion chart. For quantitation of Aβ in brain extracts, the internal reference standards of synthetic Aβ were utilized to produce standard curves from which values were interpolated.

[8] = Table 5, NIST database, cited from earlier work
[9] = biological target: Aβ1-42 (Homo sapiens, UniProt P05067); test: Effect of metal chelators on H2O2 production from Aβ1-42; type: biochemical
Chain of Aβ1-42 (P05067 672-713 limits assumed): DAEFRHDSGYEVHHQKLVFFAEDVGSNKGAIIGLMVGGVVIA

## OC[C@@H](O)[C@@H](O)[C@H](O)[C@H](O)CO [mannitol]
[1]
  effect of OH. scavengers on OH. generation by Aβ1-42: neither were able to quench
[2]
  effect on Cu^2+-induced SDS-resistant Aβ polymerization: abolishes the polymerization

## bathocuproinedisulfonic acid [BC]
[3]
  Stability constant logK10, Co: 4.2
[4]
  Stability constant logK10, Zn: 4.1
[5]; chelator 0.001 mM
  Residual Al in extracted pellet: 88 mg/kg
  Residual Ca in extracted pellet: 1306 mg/kg
  Residual Cu in extracted pellet: 13 mg/kg
  Residual Fe in extracted pellet: 275 mg/kg
  Residual Mg in extracted pellet: 225 mg/kg
  Residual Zn in extracted pellet: 47 mg/kg
[5]; chelator 0.004 mM
  Residual Al in extracted pellet: 33 mg/kg
  Residual Ca in extracted pellet: 489 mg/kg
  Residual Cu in extracted pellet: 12 mg/kg
  Residual Fe in extracted pellet: 231 mg/kg
  Residual Mg in extracted pellet: 234 mg/kg
  Residual Zn in extracted pellet: 47 mg/kg
[5]; chelator 0.01 mM
  Residual Al in extracted pellet: 73 mg/kg
  Residual Ca in extracted pellet: 762 mg/kg
  Residual Cu in extracted pellet: 13 mg/kg
  Residual Fe in extracted pellet: 256 mg/kg
  Residual Mg in extracted pellet: 223 mg/kg
  Residual Zn in extracted pellet: 49 mg/kg
[5]; chelator 0.04 mM
  Residual Al in extracted pellet: 38 mg/kg
  Residual Ca in extracted pellet: 753 mg/kg
  Residual Cu in extracted pellet: 15 mg/kg
  Residual Fe in extracted pellet: 248 mg/kg
  Residual Mg in extracted pellet: 226 mg/kg
  Residual Zn in extracted pellet: 56 mg/kg
[5]; chelator 2.0 mM
  Residual Al in extracted pellet: 42 mg/kg
  Residual Ca in extracted pellet: 1602 mg/kg
  Residual Cu in extracted pellet: 14 mg/kg
  Residual Fe in extracted pellet: 271 mg/kg
  Residual Mg in extracted pellet: 254 mg/kg
  Residual Zn in extracted pellet: 49 mg/kg
[5]; chelator 5.0 mM
  Residual Al in extracted pellet: 38 mg/kg
  Residual Ca in extracted pellet: 912 mg/kg
  Residual Cu in extracted pellet: 15 mg/kg
  Residual Fe in extracted pellet: 249 mg/kg
  Residual Mg in extracted pellet: 238 mg/kg
  Residual Zn in extracted pellet: 53 mg/kg
[6]
  % of total Aβ extracted: 3.1% and 7.2% and 6%
  % of total Aβ extracted, + PBS: 2.36% and 5.4% and 3.7%
  Extractable Aβ (% of total), X (mean): (5.4) %
  Extractable Aβ, X (mean): 4.10 µg/g
  X C/PBS (mean chelator / PBS): 3.90
  concentration response of Aβ solubilization: typical concentration-dependent response with no decline in effectiveness
  mean increase of Aβ solubilization over PBS alone: around 4 fold
[7]; AC subject 1, chelator 2 mM
  Extractable Aβ: 0.03 µg/g
  Extractable Aβ (% of total): (5) %
[7]; AC subject 2, chelator 2 mM
  Extractable Aβ: 0.24 µg/g
  Extractable Aβ (% of total): (5.7) %
[7]; AC subject 3, chelator 2 mM
  Extractable Aβ: 0.29 µg/g
  Extractable Aβ (% of total): (11.0) %
[7]; AC subject 4, chelator 2 mM
  Extractable Aβ: 0.08 µg/g
  Extractable Aβ (% of total): (2.6) %
[7]; AC subject 5, chelator 2 mM
  Extractable Aβ: 0.98 µg/g
  Extractable Aβ (% of total): (27.2) %
[7]; AC subjects 1-5, chelator 2 mM
  Extractable Aβ (% of total), X (mean): (10.3) %
  Extractable Aβ, X (mean): 0.32 µg/g
[7]; age-matched control tissue, chelator 2 mM
  X C/PBS (mean chelator / PBS): 1.28
[7]; non-demented, aged-matched controls
  effect on Aβ solubilization compared with AD tissue: much reduced
[8]; Cu^2+
  Stability constant logK10, Cu^2+: 6.1
[8]; Cu^+
  Stability constant logK10, Cu^+: 19.1
[9]
  effect on H2O2 formation by Aβ1-42: substantially inhibited; also recorded: inhibited H2O2 formation
[2]
  effect on Cu^2+-induced SDS-resistant Aβ polymerization: marked decrease in polymerization

## C[S+](C)[O-] [DMSO, dimethyl sulfoxide]
[1]
  effect of OH. scavengers on OH. generation by Aβ1-42: neither were able to quench
